According to the C3SDB collision cross section collection:

Key:
[1] = instrument: TW, calibrated with phosphatidylcholines (ESI+) and phosphatidylethanolamines (ESI-), doubly charged cardiolipins calibrated with poly-DL-…
[2] = [M+H]+; instrument: TW

collision cross section (N2) ([1]; [M-H]-) [Å²] | Compound | collision cross section (N2) [2] [Å²] | also measured
313.42 | CCCCCC/C=C\CCCCCCCC(=O)OC[C@H](COP(=O)(O)OCCNC(=O)CCCCCCCCCCCCCCC)OC(=O)CCCCCCCCCCCCCC [AcylPE(47:1)] | – | collision cross section (N2) ([1]; [M+Na]+): 321.4 Å²
325.65 | CCCCCC/C=C\CCCCCCCC(=O)OC[C@H](COP(=O)(O)OCCNC(=O)CCCCCCCCCCCCCCC)OC(=O)CCCCCCCC1CC1CCCCCCCC (stereo partly drawn) [AcylPE(51:2)] | – | –
328.83 | CCCCCC/C=C\CCCCCCCC(=O)OC[C@H](COP(=O)(O)OCCNC(=O)CCCCCCCCCCCCCCC)OC(=O)CCCCCCC/C=C\CCCCCCCCCC [AcylPE(52:2)] | – | –
312.53 | CCCC/C=C\CCCCCCCC(=O)O[C@H](COC(=O)CCCCCCC/C=C\CCCCCC)COP(=O)(O)OC[C@@H](O)COC(=O)CCCCCCCCCCCCCCC [AcylPG(46:2)] | – | –
315.28 | CCCCCC/C=C\CCCCCCCC(=O)OC[C@H](COP(=O)(O)OC[C@@H](O)COC(=O)CCCCCCCCCCCCCCC)OC(=O)CCCCCCC/C=C\CCCCCC [AcylPG(48:2)] | – | –
326.79 | CCCCCC/C=C\CCCCCCCC(=O)OC[C@H](COP(=O)(O)OC[C@@H](O)COC(=O)CCCCCCCCCCCCCCC)OC(=O)CCCCCCCC1CC1CCCCCCCC (stereo partly drawn) [AcylPG(51:2)] | – | –
325 | CCCCCC/C=C\CCCCCCCC(=O)OC[C@H](O)COP(=O)(O)OC[C@@H](COC(=O)CCCCCCC/C=C\CCCCCC)OC(=O)CCCCCCCC1CC1CCCCCCCC (stereo partly drawn) [AcylPG(51:3)] | – | –
333.78 | CCCCCC/C=C\CCCCCCCC(=O)OC[C@H](COP(=O)(O)OC[C@@H](O)COC(=O)CCCCCCCCCCCCCCC)OC(=O)CCCCCCCC1CC1CCCCCCCCCC (stereo partly drawn) [AcylPG(53:2)] | – | –
207.62 | CCCCCCC1CC1CCCCCCCC(=O)O[C@H](CO)COP(=O)([O-])OCC[NH3+] (stereo partly drawn) [LPE(0:0/17:1)] | – | collision cross section (N2) ([1]; [M+H]+): 214.85 Å²; collision cross section (N2) ([1]; [M+Na]+): 219.32 Å²
214.39 | CCCCCCCCC1CC1CCCCCCCC(=O)O[C@H](CO)COP(=O)([O-])OCC[NH3+] (stereo partly drawn) [LPE(0:0/19:1)] | – | collision cross section (N2) ([1]; [M+H]+): 221.32 Å²; collision cross section (N2) ([1]; [M+Na]+): 226.07 Å²
203.75 | CCCCCC/C=C/CCCCCCCC(=O)OC[C@@H](O)COP(=O)([O-])OCC[NH3+] [LPE(16:1/0:0)] | – | collision cross section (N2) ([1]; [M+H]+): 206.28 Å²; collision cross section (N2) ([1]; [M+Na]+): 211.09 Å²
208.96 | CCCCCCCCCCCCCCC(=O)O[C@H](CO)COP(=O)(O)OCC(O)CO (stereo partly drawn) [LPG(15:0)] | – | –
217.72 | CCCCCCCC/C=C/CCCCCCCC(=O)OC[C@@H](O)COP(=O)(O)OCC(O)CO (stereo partly drawn) [LPG(18:1)] | – | –
261.81 | CCCCCCCC/C=C\CCCCCCCC(=O)OC(COC(=O)CCCCCCCCCCCCCCCCC)COP(=O)(O)O (stereo not drawn) [PA(36:1)] | – | –
251.05 | CCCCCCCCCCCCCCCC(=O)OCC(COP(=O)(O)OCCN)OC(=O)CCCCCCCCCCCCC (stereo not drawn) [PE(30:0)] | – | collision cross section (N2) ([1]; [M+H]+): 265.85 Å²
248.78 | CCCCCC/C=C\CCCCCCCC(=O)OCC(COP(=O)(O)OCCN)OC(=O)CCCCCCCCCCCCC (stereo not drawn) [PE(30:1)] | – | collision cross section (N2) ([1]; [M+H]+): 260.6 Å²
259.91 | CCCCCCCCCCCCCCCC(=O)OCC(COP(=O)(O)OCCN)OC(=O)CCCCCCCC1CC1CCCCCC (stereo not drawn) [PE(33:1)] | – | collision cross section (N2) ([1]; [M+H]+): 273.6 Å²
269.17 | CCCCCCCC/C=C\CCCCCCCC(=O)OCC(COP(=O)(O)OCCN)OC(=O)CCCCCCC/C=C\CCCCCCCC (stereo not drawn) [PE(36:2)] | – | collision cross section (N2) ([1]; [M+H]+): 276.82 Å²
258.02 | CCCCCCCCCCCCCCCC(=O)OCC(COP(=O)(O)OCC(O)CO)OC(=O)CCCCCCCCCCCCC (stereo not drawn) [PG(30:0)] | – | collision cross section (N2) ([1]; [M+Na]+): 272.75 Å²
263.91 | CCCCCCCCCCCCCCCC(=O)OCC(COP(=O)(O)OCC(O)CO)OC(=O)CCCCCCCCCCCCCCC (stereo not drawn) [PG(32:0)] | – | collision cross section (N2) ([1]; [M+Na]+): 278.8 Å²
267.97 | CCCCCC/C=C\CCCCCCCC(=O)OCC(COP(=O)(O)OCC(O)CO)OC(=O)CCCCCCC/C=C\CCCCCCCC (stereo not drawn) [PG(34:2)] | – | collision cross section (N2) ([1]; [M+Na]+): 278.38 Å²
271.85 | CCCCCC/C=C\CCCCCCCC(=O)OCC(COP(=O)(O)OCC(O)CO)OC(=O)CCCCCCCC1CC1CCCCCCCC (stereo not drawn) [PG(35:2)] | – | collision cross section (N2) ([1]; [M+Na]+): 281.82 Å²

Further lines, the compound ahead of its results:

Compound | collision cross section (N2) ([1]; [M-H]-) [Å²] | collision cross section (N2) [2] [Å²] | also measured
CCCCCC/C=C\CCCCCCCC(=O)OC[C@H](COP(=O)(O)OC[C@@H](O)COC(=O)CCCCCCCCCCCCCCC)OC(=O)CCCCCCCCCCCCC [AcylPG(46:1)] | 310.71 | – | –
CCCCCC/C=C\CCCCCCCC(=O)OC[C@H](COP(=O)(O)OC[C@@H](O)COC(=O)CCCCCCCCCCCCCCC)OC(=O)CCCCCCCC1CC1CCCCCC (stereo partly drawn) [AcylPG(49:2)] | 318.87 | – | –
O=C(CCCN1CCN(c2ccccn2)CC1)c1ccc(F)cc1 [Azaperone] | – | 180.3 | –
CC(NC(=O)C(NC(=O)O)C(C)C)c1nc2ccc(F)cc2s1 (stereo not drawn) [Benthiavalicarb] | – | 173.38 | –
O=C(Nc1ccccc1-c1ccc(Cl)cc1)c1cccnc1Cl [Boscalid] | – | 171.67 | –
CC(C)(C)NCC(O)c1cc(Br)c(N)c(Br)c1 (stereo not drawn) [Brombuterol] | – | 167 | –
CCCCCC/C=C\CCCCCCCC(=O)OC(COC(=O)CCCCCCCCCCCCCCC)COP(=O)(O)OCC(O)COP(=O)(O)OCC(COC(=O)CCCCCCCCCCCCCCC)OC(=O)CCCCCCC/C=C\CCCCCC (stereo not drawn) [CL(64:2)] | – | – | collision cross section (N2) ([1]; [M+2K]2+): 422.9 Å²; collision cross section (N2) ([1]; [M-2H]2-): 397 Å²
CCCCCC/C=C\CCCCCCCC(=O)OC(COC(=O)CCCCCCCCCCCCCCC)COP(=O)(O)OCC(O)COP(=O)(O)OCC(COC(=O)CCCCCCCCCCCCCCC)OC(=O)CCCCCCCC1CC1CCCCCC (stereo not drawn) [CL(65:2)] | – | – | collision cross section (N2) ([1]; [M+2K]2+): 425.4 Å²; collision cross section (N2) ([1]; [M-2H]2-): 399.77 Å²
CCCCCC/C=C\CCCCCCCC(=O)OCC(COP(=O)(O)OCC(O)COP(=O)(O)OCC(COC(=O)CCCCCCC/C=C/CCCCCCCC)OC(=O)CCCCCCC/C=C\CCCCCC)OC(=O)CCCCCCC/C=C\CCCCCCCC (stereo not drawn) [CL(68:4)] | – | – | collision cross section (N2) ([1]; [M-2H]2-): 406.81 Å²
CCCCCCCC/C=C\CCCCCCCC(=O)OC(COC(=O)CCCCCCCCCCCCCCC)COP(=O)(O)OCC(O)COP(=O)(O)OCC(COC(=O)CCCCCCCC1CC1CCCCCCCC)OC(=O)CCCCCCCCCCCCCCC (stereo not drawn) [CL(69:2)] | – | – | collision cross section (N2) ([1]; [M-2H]2-): 408.93 Å²
CCCCCC/C=C\CCCCCCCC(=O)OCC(COP(=O)(O)OCC(O)COP(=O)(O)OCC(COC(=O)CCCCCCCC1CC1CCCCCCCC)OC(=O)CCCCCCC/C=C\CCCCCC)OC(=O)CCCCCCC/C=C\CCCCCCCC (stereo not drawn) [CL(69:4)] | – | – | collision cross section (N2) ([1]; [M-2H]2-): 409.28 Å²
Nc1c(Cl)cc(C(O)CNC2CCC(O)CC2)cc1Cl (stereo not drawn) [Clencyclohexerol] | – | 164.7 | –
C[C@H]1C[C@H]2[C@@H]3CCC4=CC(=O)C=C[C@]4(C)[C@@]3(F)[C@@H](O)C[C@]2(C)[C@@]1(O)C(=O)CCl [Clobetasol] | – | 201.29 | –
C[C@]12CC[C@H]3[C@@H](CCC4=C(Cl)C(=O)CC[C@@]43C)[C@@H]1CC[C@@H]2O [Clostebol] | – | 173.6 | –
COP(=O)(OC)OC=C(Cl)Cl [Dichlorvos] | – | 133.07 | –
O=C(O)Cc1ccccc1Nc1c(Cl)cccc1Cl [Diclofenac] | – | 157.2 | –

Compound | collision cross section (N2) ([1]; [M-H]-) [Å²] | collision cross section (N2) [2] [Å²] | also measured
Fc1ccc(cc1)N\3c2cc(c(F)cc2C(=O)C(/C(=O)O)=C/3)N4CCN(C)CC4 [Difloxacine] | – | 192.3 | –
O=C(NC(=O)c1c(F)cccc1F)Nc1ccc(Cl)cc1 [Diflubenzuron] | – | 160.98 | –
C[C@H]1c2cccc(O)c2C(=O)C2=C(O)[C@]3(O)C(=O)C(C(N)=O)=C(O)[C@@H](N(C)C)[C@@H]3[C@@H](O)[C@@H]21 [Doxycycline] | – | 197.4 | –
O=C(O)\C3=C\N(c2cc(N1CCN(CC)CC1)c(F)cc2C3=O)C4CC4 [Enrofloxacine] | – | 194.8 | –
CCOP(=O)(NC(C)C)Oc1ccc(S(C)(=O)=O)c(C)c1 (stereo not drawn) [Fenamiphos sulfone] | – | 179.48 | –
CC(Cc1ccc(O)cc1)NCC(O)c1cc(O)cc(O)c1 (stereo not drawn) [Fenoterol] | – | 180.4 | –
CCOC(=O)NCCOc1ccc(Oc2ccccc2)cc1 [Fenoxycarb] | – | 178.44 | –
CC(Oc1ccc(Oc2ccc(C(F)(F)F)cn2)cc1)C(=O)O (stereo not drawn) [Fluazifop] | – | 173.47 | –
Cc1c(Nc2ncccc2C(=O)O)cccc1C(F)(F)F [Flunixin] | – | 159.1 | –
CCCCC1CC1CCCCCCCC(=O)O[C@H](CO)COP(=O)(O)OCC(O)CO (stereo partly drawn) [LPG(15:1)] | 206.44 | – | –
CCCCCCC1CC1CCCCCCCC(=O)OC[C@@H](O)COP(=O)(O)OCC(O)CO (stereo partly drawn) [LPG(17:1)] | 214.26 | – | –
CCCCCCCCC1CC1CCCCCCCC(=O)OC[C@@H](O)COP(=O)(O)OCC(O)CO (stereo partly drawn) [LPG(19:1)] | 221.18 | – | –
CCCCCCCCCCCCCCCC(=O)OCC(COP(=O)(O)OCCN)OC(=O)CCCCCCCCCCCCCC (stereo not drawn) [PE(31:0)] | 253.95 | – | collision cross section (N2) ([1]; [M+H]+): 269.25 Å²
CCCCCC/C=C\CCCCCCCC(=O)OCC(COP(=O)(O)OCCN)OC(=O)CCCCCCC/C=C\CCCCCCCC (stereo not drawn) [PE(34:2)] | 261.72 | – | collision cross section (N2) ([1]; [M+H]+): 271.97 Å²
CCCCCC/C=C\CCCCCCCC(=O)OCC(COP(=O)(O)OCC(O)CO)OC(=O)CCCCCCCCCCCCCCC (stereo not drawn) [PG(32:1)] | 262.68 | – | collision cross section (N2) ([1]; [M+Na]+): 275.15 Å²
